Assay [1] has as its system Epidermal growth factor receptor (Homo sapiens), P00533 [UNDEFINED MUTATION]. Put plainly: Selectivity interaction (ProQinase) EUB0000171b EGFR. The conditions noted are these: at 5 µM.
For assay [2], the target named is ALK tyrosine kinase receptor (Homo sapiens, UniProt Q9UM73). The conditions noted are these: at 10 µM.
Assay [3] addresses Protein-tyrosine kinase 2-beta (Homo sapiens) (UniProt Q14289). Put plainly: Selectivity interaction (KinomeScan (DiscoverX)) EUB0001049a PTK2B. The note with it: at 1 µM.
Assay [4] has as its target Citron Rho-interacting kinase (Homo sapiens) (UniProt O14578). Put plainly: Selectivity interaction (KinomeScan (DiscoverX)) EUB0000655a CIT. The conditions noted are these: at 10 µM.
The target in assay [5] is Tyrosine-protein kinase Fgr (Homo sapiens) (UniProt P09769). The experiment in a line: Selectivity interaction (KinomeScan (DiscoverX)) EUB0000655a FGR. The note with it: at 10 µM.
Assay [6] deals with Non-receptor tyrosine-protein kinase TYK2 (Homo sapiens, UniProt P29597). The experiment in a line: Selectivity interaction (KinomeScan (DiscoverX)) EUB0000666a TYK2. The conditions noted are these: at 10 µM.
Assay [7] has as its target T1, Cyclin-dependent kinase-like 5 (Homo sapiens) (UniProt O76039).
T1 sequence (whole entry): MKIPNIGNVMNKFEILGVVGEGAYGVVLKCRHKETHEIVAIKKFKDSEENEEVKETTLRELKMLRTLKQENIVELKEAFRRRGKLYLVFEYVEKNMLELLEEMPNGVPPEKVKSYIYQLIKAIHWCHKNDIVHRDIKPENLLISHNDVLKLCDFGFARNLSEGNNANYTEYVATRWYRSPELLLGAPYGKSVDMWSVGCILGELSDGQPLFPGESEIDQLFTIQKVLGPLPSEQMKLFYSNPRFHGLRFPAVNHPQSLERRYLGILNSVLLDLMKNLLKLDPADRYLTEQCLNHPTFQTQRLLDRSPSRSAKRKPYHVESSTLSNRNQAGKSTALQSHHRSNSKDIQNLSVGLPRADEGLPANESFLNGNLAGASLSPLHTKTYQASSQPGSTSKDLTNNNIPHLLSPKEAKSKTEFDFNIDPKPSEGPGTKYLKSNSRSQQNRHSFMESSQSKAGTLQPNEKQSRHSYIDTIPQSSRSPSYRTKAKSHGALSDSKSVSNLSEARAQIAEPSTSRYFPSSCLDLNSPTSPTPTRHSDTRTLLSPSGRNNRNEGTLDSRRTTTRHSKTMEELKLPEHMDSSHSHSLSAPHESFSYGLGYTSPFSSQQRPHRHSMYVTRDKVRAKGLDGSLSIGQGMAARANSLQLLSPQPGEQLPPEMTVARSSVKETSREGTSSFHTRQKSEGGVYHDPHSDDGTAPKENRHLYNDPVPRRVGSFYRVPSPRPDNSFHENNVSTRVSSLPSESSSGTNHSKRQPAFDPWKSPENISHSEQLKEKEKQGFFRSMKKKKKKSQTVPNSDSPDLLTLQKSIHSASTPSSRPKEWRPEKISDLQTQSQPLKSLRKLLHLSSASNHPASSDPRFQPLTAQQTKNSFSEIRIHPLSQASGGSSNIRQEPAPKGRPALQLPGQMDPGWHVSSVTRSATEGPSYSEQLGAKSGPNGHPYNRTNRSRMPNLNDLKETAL
The experiment in a line: Selectivity interaction (Kinase panel (Z-LYTE Assay)) EUB0001632a CDKL5. The note with it: at 10 µM.

In assay [8] the target is Serine/threonine-protein kinase N1 (Homo sapiens, UniProt Q16512). Put plainly: Selectivity interaction (ActivX KiNativ screen (kinase selectivity in THP-1 cell lysates)) EUB0000639a PKN1. The conditions noted are these: lysate, at 0.2 µM. The class given is subcellular.
Assay [9] has as its target Calcium/calmodulin-dependent protein kinase type II subunit beta (Homo sapiens) (UniProt Q13554). The experiment in a line: Selectivity interaction (ActivX KiNativ screen (kinase selectivity in THP-1 cell lysates)) EUB0000639a CAMK2B. The note with it: lysate, at 1 µM. The class given is subcellular.
For assay [10], the target named is T2, Mitogen-activated protein kinase kinase kinase 5 (Homo sapiens) (UniProt Q99683).
T2 sequence (whole entry): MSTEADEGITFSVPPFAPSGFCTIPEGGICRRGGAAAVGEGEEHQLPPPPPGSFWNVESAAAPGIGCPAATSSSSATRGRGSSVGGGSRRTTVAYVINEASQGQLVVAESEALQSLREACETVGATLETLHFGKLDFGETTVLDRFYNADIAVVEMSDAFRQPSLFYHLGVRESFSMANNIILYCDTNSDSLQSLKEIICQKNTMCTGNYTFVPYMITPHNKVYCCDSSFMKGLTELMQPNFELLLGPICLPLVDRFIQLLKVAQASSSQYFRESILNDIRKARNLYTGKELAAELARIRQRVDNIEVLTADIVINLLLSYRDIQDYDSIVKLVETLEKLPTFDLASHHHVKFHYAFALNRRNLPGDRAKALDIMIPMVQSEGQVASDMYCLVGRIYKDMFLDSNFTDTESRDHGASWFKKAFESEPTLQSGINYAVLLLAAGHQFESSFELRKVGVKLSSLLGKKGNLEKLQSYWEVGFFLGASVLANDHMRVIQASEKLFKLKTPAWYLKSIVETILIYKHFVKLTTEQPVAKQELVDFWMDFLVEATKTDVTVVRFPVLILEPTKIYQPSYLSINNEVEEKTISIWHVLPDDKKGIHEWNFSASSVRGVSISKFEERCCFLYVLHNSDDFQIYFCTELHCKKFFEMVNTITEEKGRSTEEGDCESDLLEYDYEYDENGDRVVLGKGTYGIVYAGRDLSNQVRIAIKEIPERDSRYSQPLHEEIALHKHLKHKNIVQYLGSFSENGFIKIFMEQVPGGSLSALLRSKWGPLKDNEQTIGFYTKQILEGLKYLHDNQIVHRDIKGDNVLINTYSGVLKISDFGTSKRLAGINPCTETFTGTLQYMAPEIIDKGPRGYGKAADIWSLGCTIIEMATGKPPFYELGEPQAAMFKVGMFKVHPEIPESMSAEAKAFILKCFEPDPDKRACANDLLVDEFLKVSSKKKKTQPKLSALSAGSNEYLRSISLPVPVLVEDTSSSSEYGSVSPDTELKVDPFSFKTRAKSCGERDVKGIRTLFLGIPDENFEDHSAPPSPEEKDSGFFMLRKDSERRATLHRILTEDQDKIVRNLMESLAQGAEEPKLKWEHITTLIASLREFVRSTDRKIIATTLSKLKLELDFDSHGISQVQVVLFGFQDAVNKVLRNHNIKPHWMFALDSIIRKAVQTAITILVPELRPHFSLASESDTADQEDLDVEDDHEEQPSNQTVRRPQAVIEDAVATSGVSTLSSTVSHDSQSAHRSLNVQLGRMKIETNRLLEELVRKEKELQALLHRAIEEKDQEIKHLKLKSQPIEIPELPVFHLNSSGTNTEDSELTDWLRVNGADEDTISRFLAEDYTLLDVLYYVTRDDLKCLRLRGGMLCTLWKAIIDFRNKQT
Put plainly: Selectivity interaction (KinomeScan (DiscoverX)) EUB0001619a MAP3K5. The conditions noted are these: at 1 µM.

Sequence of Calcium/calmodulin-dependent protein kinase type II subunit beta (Homo sapiens) (Q13554 whole entry): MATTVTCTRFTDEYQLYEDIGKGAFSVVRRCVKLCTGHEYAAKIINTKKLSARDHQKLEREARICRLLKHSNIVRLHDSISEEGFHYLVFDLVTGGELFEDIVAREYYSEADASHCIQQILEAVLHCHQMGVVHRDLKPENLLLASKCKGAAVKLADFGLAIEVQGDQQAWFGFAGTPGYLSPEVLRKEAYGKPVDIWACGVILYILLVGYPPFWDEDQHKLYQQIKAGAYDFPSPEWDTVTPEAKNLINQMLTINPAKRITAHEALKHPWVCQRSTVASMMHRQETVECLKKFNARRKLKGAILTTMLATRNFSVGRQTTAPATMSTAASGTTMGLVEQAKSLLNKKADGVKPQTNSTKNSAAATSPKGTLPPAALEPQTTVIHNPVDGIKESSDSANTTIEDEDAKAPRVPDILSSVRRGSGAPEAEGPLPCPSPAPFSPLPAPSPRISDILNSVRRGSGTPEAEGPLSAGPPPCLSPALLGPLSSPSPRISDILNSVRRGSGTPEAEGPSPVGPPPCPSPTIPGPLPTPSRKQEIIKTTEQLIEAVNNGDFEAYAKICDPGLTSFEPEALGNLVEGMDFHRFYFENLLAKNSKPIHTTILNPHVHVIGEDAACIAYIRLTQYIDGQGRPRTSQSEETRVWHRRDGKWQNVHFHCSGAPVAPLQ
Sequence of Tyrosine-protein kinase Fgr (Homo sapiens) (P09769 2-529 limits assumed): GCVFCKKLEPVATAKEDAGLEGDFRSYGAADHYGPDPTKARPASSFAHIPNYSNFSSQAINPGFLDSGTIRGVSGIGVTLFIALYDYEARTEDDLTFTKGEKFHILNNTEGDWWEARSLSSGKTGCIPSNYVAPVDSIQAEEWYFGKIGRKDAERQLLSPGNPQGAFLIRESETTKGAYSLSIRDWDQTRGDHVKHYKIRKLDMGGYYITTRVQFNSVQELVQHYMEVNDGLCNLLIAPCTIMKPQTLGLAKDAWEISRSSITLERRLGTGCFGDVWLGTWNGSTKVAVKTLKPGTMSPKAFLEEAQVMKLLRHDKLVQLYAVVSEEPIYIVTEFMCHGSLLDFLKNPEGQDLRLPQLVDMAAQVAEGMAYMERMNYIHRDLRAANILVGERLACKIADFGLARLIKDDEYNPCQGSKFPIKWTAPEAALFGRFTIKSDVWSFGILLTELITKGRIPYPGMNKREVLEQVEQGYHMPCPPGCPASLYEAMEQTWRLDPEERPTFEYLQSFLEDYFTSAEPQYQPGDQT
Sequence of ALK tyrosine kinase receptor (Q9UM73 19-1620 limits assumed): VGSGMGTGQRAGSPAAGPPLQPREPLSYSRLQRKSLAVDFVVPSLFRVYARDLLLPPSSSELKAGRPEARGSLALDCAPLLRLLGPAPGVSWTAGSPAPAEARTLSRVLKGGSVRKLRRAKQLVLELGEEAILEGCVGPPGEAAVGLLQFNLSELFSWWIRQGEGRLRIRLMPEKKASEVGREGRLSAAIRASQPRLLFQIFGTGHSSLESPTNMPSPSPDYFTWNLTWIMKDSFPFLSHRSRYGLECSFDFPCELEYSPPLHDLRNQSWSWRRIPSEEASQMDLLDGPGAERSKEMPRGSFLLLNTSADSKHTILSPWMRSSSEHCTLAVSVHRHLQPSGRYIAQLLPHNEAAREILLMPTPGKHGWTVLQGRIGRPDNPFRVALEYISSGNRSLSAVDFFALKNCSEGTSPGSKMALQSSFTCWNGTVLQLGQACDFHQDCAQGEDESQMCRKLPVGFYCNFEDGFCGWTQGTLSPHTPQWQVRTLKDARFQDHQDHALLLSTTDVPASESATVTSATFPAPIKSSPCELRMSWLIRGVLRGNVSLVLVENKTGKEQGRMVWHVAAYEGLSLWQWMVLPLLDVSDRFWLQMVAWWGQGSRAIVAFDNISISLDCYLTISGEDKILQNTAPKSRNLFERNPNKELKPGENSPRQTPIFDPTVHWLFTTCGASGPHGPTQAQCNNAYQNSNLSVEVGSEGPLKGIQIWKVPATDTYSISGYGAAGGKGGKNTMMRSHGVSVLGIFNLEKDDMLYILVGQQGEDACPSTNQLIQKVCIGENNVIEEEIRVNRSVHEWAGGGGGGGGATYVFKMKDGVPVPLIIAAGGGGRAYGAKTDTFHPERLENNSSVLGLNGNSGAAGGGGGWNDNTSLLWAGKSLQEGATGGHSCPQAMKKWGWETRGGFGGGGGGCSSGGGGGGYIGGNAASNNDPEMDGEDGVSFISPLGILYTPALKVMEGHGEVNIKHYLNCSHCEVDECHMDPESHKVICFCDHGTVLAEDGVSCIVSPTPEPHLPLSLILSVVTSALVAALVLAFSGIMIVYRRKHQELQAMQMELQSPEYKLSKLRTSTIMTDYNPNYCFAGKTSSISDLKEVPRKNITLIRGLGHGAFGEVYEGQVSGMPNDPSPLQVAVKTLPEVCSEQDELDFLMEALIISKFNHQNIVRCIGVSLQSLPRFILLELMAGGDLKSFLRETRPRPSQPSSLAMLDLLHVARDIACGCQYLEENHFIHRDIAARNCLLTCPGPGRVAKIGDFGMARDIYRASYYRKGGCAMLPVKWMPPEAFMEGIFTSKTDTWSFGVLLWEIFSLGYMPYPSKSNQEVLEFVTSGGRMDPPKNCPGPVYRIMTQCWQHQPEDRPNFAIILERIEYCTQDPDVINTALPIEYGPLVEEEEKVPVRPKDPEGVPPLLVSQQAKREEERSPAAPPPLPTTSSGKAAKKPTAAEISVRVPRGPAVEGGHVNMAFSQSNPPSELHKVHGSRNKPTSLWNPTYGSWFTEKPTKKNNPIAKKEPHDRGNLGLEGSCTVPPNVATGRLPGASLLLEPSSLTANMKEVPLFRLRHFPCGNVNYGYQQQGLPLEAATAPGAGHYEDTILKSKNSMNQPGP
Sequence of Protein-tyrosine kinase 2-beta (Homo sapiens) (Q14289 whole entry, looked up): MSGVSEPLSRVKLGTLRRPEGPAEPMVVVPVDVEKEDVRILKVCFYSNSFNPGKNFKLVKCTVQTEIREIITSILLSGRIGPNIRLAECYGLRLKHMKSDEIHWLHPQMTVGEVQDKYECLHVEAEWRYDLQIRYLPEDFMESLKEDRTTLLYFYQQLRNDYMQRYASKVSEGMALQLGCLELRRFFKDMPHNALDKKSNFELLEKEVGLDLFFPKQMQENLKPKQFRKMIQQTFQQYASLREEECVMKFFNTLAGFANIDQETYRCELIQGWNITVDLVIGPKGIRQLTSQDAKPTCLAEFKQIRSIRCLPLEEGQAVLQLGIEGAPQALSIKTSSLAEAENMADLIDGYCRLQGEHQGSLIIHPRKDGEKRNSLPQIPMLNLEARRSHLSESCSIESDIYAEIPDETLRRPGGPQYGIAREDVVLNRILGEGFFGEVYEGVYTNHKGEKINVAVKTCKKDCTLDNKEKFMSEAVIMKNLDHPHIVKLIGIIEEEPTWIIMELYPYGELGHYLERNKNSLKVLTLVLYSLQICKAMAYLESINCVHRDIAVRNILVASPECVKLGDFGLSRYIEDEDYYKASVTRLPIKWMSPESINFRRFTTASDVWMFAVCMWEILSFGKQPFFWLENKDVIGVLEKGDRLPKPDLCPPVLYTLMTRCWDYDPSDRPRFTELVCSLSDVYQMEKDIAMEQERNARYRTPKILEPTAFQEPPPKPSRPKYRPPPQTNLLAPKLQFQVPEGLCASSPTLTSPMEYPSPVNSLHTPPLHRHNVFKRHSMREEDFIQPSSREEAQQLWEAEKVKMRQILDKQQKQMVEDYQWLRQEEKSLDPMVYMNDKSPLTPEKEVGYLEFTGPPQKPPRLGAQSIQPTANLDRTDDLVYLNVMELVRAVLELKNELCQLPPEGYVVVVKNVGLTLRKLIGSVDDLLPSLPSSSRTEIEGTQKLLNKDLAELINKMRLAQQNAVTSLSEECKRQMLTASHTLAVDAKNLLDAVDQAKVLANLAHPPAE
Sequence of Epidermal growth factor receptor (Homo sapiens), P00533 [UNDEFINED MUTATION] (P00533 whole entry, looked up, change not shown): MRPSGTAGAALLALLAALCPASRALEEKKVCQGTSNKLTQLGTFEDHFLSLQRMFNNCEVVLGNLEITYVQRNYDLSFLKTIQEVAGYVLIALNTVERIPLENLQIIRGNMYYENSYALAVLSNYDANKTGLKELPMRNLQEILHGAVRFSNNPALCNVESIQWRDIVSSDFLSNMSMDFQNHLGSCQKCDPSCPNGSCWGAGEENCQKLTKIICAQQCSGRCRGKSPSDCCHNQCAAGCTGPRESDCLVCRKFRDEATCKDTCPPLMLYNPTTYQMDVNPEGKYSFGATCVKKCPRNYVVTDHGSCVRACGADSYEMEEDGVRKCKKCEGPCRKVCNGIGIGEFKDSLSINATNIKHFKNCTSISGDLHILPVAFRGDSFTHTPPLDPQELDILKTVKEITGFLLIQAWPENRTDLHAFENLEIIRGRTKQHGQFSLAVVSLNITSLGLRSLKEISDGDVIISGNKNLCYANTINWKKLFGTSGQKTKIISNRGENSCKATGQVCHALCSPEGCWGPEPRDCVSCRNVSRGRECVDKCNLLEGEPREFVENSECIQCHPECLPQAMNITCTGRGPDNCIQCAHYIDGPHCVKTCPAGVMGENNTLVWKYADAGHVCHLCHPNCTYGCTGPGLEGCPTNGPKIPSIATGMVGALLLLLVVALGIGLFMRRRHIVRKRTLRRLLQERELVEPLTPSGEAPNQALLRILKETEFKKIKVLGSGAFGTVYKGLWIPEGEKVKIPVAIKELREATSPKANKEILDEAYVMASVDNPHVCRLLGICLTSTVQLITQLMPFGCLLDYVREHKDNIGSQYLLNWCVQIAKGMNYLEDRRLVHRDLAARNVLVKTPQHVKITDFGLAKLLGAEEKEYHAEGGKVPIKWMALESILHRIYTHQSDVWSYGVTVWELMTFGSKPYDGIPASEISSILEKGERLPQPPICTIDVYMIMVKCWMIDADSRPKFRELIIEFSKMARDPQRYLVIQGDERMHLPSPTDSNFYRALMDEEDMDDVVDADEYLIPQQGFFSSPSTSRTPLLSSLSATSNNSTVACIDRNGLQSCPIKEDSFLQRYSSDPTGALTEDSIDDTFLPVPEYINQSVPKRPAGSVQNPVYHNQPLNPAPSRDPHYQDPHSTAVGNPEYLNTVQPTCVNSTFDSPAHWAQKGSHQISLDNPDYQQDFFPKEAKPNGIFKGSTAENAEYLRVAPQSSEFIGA

In assay [1], `C=CC(=O)Nc1cccc(C(=O)Nc2ccc(Nc3cc(-c4[nH]c(SC)nc4C)ccn3)cc2)c1` returned a % of control of 96%. As to `CCN(CC)CCCCNc1ncc2cc(-c3cc(OC)cc(OC)c3)c(NC(=O)NC(C)(C)C)nc2n1`, the % of control in [2] amounted to 100%. In turn, `COc1cc(Nc2nc(C)cc(-c3cnn4nc(OC)ccc34)n2)cc(C(F)(F)F)c1` gave a % of control in assay [3] of 99%. Regarding `CN(C)CCOc1ccc(-c2nc(-c3ccncc3)c(-c3ccc4c(c3)CC/C4=N\O)[nH]2)cc1`, the % of control in assay [4] worked out at 0.8%; in assay [5], 87%. Consider `O=C(NOC[C@H](O)CO)c1ccc(F)c(F)c1Nc1ccc(I)cc1F`, for which, in [6], the % of control amounted to 100%.

Regarding `Cn1cc(-n2cnc3c(NCc4nc5cc(Cl)c(Cl)cc5[nH]4)nc(N4CCOCC4)nc32)cn1`, the % of control in assay [7] came to 4.16%.

Turning to `CC[C@@H]1[C@H](F)C(=O)N[C@@H]1COc1nccc2cc(C(N)=O)c(OC)cc12` [ZIMLOVISERTIB], the % of inhibition was 5.5% in assay [8] and 10% in assay [9]. As for `N#Cc1cccc(-c2c[nH]c3ncnc(N4CCOCC4)c23)c1`, the % of control in assay [10] is 26%.

The values are drawn from ChEMBL document CHEMBL5465560, “Selectivity Literature for EUbOPEN Chemogenomic Library” (2024).
